From paper PMC6199309, “A therapeutic approach to pantothenate kinase associated neurodegeneration” (Nature Communications, 2018)

Legend:
CDKL1 = target: T1, CDKL1 (Homo sapiens, UniProt Q00532); assay: KINOMEscan; assay type: binding; conditions: read-out: %Ctrl @ 10000nM
T1 construct: purchased DiscoverX KINOMEscan

AKT2 = target: T2, AKT2 (Homo sapiens, UniProt P31751); assay: KINOMEscan; assay type: binding; conditions: read-out: %Ctrl @ 10000nM
T2 construct: purchased DiscoverX KINOMEscan

p38-gamma = target: T3, p38-gamma (Homo sapiens, UniProt P53778); assay: KINOMEscan; assay type: binding; conditions: read-out: %Ctrl @ 10000nM
T3 construct: purchased DiscoverX KINOMEscan

AURKC = target: T4, AURKC (Homo sapiens, UniProt Q9UQB9); assay: KINOMEscan; assay type: binding; conditions: read-out: %Ctrl @ 10000nM
T4 construct: purchased DiscoverX KINOMEscan

CAMK1D = target: T5, CAMK1D (Homo sapiens, UniProt Q8IU85); assay: KINOMEscan; assay type: binding; conditions: read-out: %Ctrl @ 10000nM
T5 construct: purchased DiscoverX KINOMEscan

ABL2 = target: T6, ABL2 (Homo sapiens, UniProt P42684); assay: KINOMEscan; assay type: binding; conditions: read-out: %Ctrl @ 10000nM
T6 construct: purchased DiscoverX KINOMEscan

CAMKK2 = target: T7, CAMKK2 (Homo sapiens, UniProt Q96RR4); assay: KINOMEscan; assay type: binding; conditions: read-out: %Ctrl @ 10000nM
T7 construct: purchased DiscoverX KINOMEscan

STK33 = target: T8, STK33 (Homo sapiens, UniProt Q9BYT3); assay: KINOMEscan; assay type: binding; conditions: read-out: %Ctrl @ 10000nM
T8 construct: purchased DiscoverX KINOMEscan

MRCKA = target: T9, MRCKA (Homo sapiens, UniProt Q5VT25); assay: KINOMEscan; assay type: binding; conditions: read-out: %Ctrl @ 10000nM
T9 construct: purchased DiscoverX KINOMEscan

ULK3 = target: T10, ULK3 (Homo sapiens, UniProt Q6PHR2); assay: KINOMEscan; assay type: binding; conditions: read-out: %Ctrl @ 10000nM
T10 construct: DNA label for qPCR (T7 phage fusion or DNA tag); purchased DiscoverX scanMAX; host or cells: E. coli BL21-derived (T7 phage) or HEK-293

KIT-autoinhibited = target: T11, KIT-autoinhibited (Homo sapiens, UniProt P10721); assay: KINOMEscan; assay type: binding; conditions: read-out: %Ctrl @ 10000nM
T11 construct: purchased DiscoverX KINOMEscan

FGFR1 = target: T12, FGFR1 (Homo sapiens, UniProt P11362); assay: KINOMEscan; assay type: binding; conditions: read-out: %Ctrl @ 10000nM
T12 construct: purchased DiscoverX KINOMEscan

ERK5 = target: T13, ERK5 (Homo sapiens, UniProt Q13164); assay: KINOMEscan; assay type: binding; conditions: read-out: %Ctrl @ 10000nM
T13 construct: purchased DiscoverX KINOMEscan

RIPK5 = target: T14, RIPK5 (Homo sapiens, UniProt Q6XUX3); assay: KINOMEscan; assay type: binding; conditions: read-out: %Ctrl @ 10000nM
T14 construct: purchased DiscoverX KINOMEscan

JNK3 = target: T15, JNK3 (Homo sapiens, UniProt P53779); assay: KINOMEscan; assay type: binding; conditions: read-out: %Ctrl @ 10000nM
T15 construct: purchased DiscoverX KINOMEscan

PRKR = target: T16, PRKR (Homo sapiens, UniProt P19525); assay: KINOMEscan; assay type: binding; conditions: read-out: %Ctrl @ 10000nM
T16 construct: purchased DiscoverX KINOMEscan

NEK2 = target: T17, NEK2 (Homo sapiens, UniProt P51955); assay: KINOMEscan; assay type: binding; conditions: read-out: %Ctrl @ 10000nM
T17 construct: purchased DiscoverX KINOMEscan

CLK3 = target: T18, CLK3 (Homo sapiens, UniProt P49761); assay: KINOMEscan; assay type: binding; conditions: read-out: %Ctrl @ 10000nM
T18 construct: purchased DiscoverX KINOMEscan

TESK1 = target: T19, TESK1 (Homo sapiens, UniProt Q15569); assay: KINOMEscan; assay type: binding; conditions: read-out: %Ctrl @ 10000nM
T19 construct: purchased DiscoverX KINOMEscan

SRPK3 = target: T20, SRPK3 (Homo sapiens, UniProt Q9UPE1); assay: KINOMEscan; assay type: binding; conditions: read-out: %Ctrl @ 10000nM
T20 construct: purchased DiscoverX KINOMEscan

TRKA = target: T21, TRKA (Homo sapiens, UniProt P04629); assay: KINOMEscan; assay type: binding; conditions: read-out: %Ctrl @ 10000nM
T21 construct: purchased DiscoverX KINOMEscan

PAMPA = conditions: PAMPA
PIK3CB = target: T22, PIK3CB (Homo sapiens, UniProt P42338); assay: KINOMEscan; assay type: binding; conditions: read-out: %Ctrl @ 10000nM
T22 construct: purchased DiscoverX KINOMEscan

[1] = target: T23, RSK4(Kin.Dom.1-N-terminal) (Homo sapiens, UniProt Q9UK32); assay: KINOMEscan; assay type: binding; conditions: read-out: %Ctrl @ 10000nM
T23 construct: RSK4(Kin.Dom.1-N-terminal); purchased DiscoverX KINOMEscan

ASK1 = target: T24, ASK1 (Homo sapiens, UniProt Q99683); assay: KINOMEscan; assay type: binding; conditions: read-out: %Ctrl @ 10000nM
T24 construct: purchased DiscoverX KINOMEscan

KIT(L576P) = target: T25, KIT(L576P) (Homo sapiens, UniProt P10721, L576P); assay: KINOMEscan; assay type: binding; conditions: read-out: %Ctrl @ 10000nM
T25 construct: purchased DiscoverX KINOMEscan

GAK = target: T26, GAK (Homo sapiens, UniProt O14976); assay: KINOMEscan; assay type: binding; conditions: read-out: %Ctrl @ 10000nM
T26 construct: purchased DiscoverX KINOMEscan

FAK = target: T27, FAK (Homo sapiens, UniProt Q05397); assay: KINOMEscan; assay type: binding; conditions: read-out: %Ctrl @ 10000nM
T27 construct: purchased DiscoverX KINOMEscan

DCAMKL2 = target: T28, DCAMKL2 (Homo sapiens, UniProt Q8N568); assay: KINOMEscan; assay type: binding; conditions: read-out: %Ctrl @ 10000nM
T28 construct: purchased DiscoverX KINOMEscan

PDPK1 = target: T29, PDPK1 (Homo sapiens, UniProt O15530); assay: KINOMEscan; assay type: binding; conditions: read-out: %Ctrl @ 10000nM
T29 construct: purchased DiscoverX KINOMEscan

FGFR2 = target: T30, FGFR2 (Homo sapiens, UniProt P21802); assay: KINOMEscan; assay type: binding; conditions: read-out: %Ctrl @ 10000nM
T30 construct: purchased DiscoverX KINOMEscan

PIK3CA(E545K) = target: T31, PIK3CA(E545K) (Homo sapiens, UniProt P42336, E545K); assay: KINOMEscan; assay type: binding; conditions: read-out: %Ctrl @ 10000nM
T31 construct: purchased DiscoverX KINOMEscan

PIK3CA(C420R) = target: T32, PIK3CA(C420R) (Homo sapiens, UniProt P42336, C420R); assay: KINOMEscan; assay type: binding; conditions: read-out: %Ctrl @ 10000nM
T32 construct: purchased DiscoverX KINOMEscan

ITK = target: T33, ITK (Homo sapiens, UniProt Q08881); assay: KINOMEscan; assay type: binding; conditions: read-out: %Ctrl @ 10000nM
T33 construct: purchased DiscoverX KINOMEscan

NDR1 = target: T34, NDR1 (Homo sapiens, UniProt Q15208); assay: KINOMEscan; assay type: binding; conditions: read-out: %Ctrl @ 10000nM
T34 construct: purchased DiscoverX KINOMEscan

ICK = target: T35, ICK (Homo sapiens, UniProt Q9UPZ9); assay: KINOMEscan; assay type: binding; conditions: read-out: %Ctrl @ 10000nM
T35 construct: purchased DiscoverX KINOMEscan

IRAK1 = target: T36, IRAK1 (Homo sapiens, UniProt P51617); assay: KINOMEscan; assay type: binding; conditions: read-out: %Ctrl @ 10000nM
T36 construct: purchased DiscoverX KINOMEscan

[2] = target: T37, RPS6KA4(Kin.Dom.1-N-terminal) (Homo sapiens, UniProt O75676); assay: KINOMEscan; assay type: binding; conditions: read-out: %Ctrl @ 10000nM
T37 construct: RPS6KA4(Kin.Dom.1-N-terminal); purchased DiscoverX KINOMEscan

TAK1 = target: T38, TAK1 (Homo sapiens, UniProt O43318); assay: KINOMEscan; assay type: binding; conditions: read-out: %Ctrl @ 10000nM
T38 construct: purchased DiscoverX KINOMEscan

MELK = target: T39, MELK (Homo sapiens, UniProt Q14680); assay: KINOMEscan; assay type: binding; conditions: read-out: %Ctrl @ 10000nM
T39 construct: purchased DiscoverX KINOMEscan

TEC = target: T40, TEC (Homo sapiens, UniProt P42680); assay: KINOMEscan; assay type: binding; conditions: read-out: %Ctrl @ 10000nM
T40 construct: purchased DiscoverX KINOMEscan

MLK2 = target: T41, MLK2 (Homo sapiens, UniProt Q02779); assay: KINOMEscan; assay type: binding; conditions: read-out: %Ctrl @ 10000nM
T41 construct: purchased DiscoverX KINOMEscan

T13 sequence (Q13164 whole entry): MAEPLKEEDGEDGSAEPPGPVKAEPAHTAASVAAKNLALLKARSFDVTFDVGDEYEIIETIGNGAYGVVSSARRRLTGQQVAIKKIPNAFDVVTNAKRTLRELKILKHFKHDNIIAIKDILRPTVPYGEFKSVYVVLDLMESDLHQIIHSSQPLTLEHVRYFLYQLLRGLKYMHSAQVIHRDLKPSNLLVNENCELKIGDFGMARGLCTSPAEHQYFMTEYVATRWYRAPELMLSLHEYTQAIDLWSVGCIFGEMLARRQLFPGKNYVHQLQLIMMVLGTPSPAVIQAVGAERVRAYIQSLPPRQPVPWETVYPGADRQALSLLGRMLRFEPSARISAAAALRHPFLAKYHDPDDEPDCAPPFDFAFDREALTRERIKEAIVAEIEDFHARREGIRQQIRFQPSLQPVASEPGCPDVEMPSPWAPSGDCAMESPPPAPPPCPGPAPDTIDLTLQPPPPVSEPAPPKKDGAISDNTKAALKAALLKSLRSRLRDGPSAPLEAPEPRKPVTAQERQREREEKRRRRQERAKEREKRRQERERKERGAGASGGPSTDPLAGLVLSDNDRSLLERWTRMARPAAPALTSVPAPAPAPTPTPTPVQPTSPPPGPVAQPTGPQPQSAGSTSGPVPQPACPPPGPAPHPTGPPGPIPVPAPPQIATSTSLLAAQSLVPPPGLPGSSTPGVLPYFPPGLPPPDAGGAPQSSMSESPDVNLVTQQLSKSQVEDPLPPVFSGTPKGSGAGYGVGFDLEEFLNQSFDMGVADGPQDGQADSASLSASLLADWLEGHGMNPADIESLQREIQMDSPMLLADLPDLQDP
T1 sequence (Q00532 whole entry): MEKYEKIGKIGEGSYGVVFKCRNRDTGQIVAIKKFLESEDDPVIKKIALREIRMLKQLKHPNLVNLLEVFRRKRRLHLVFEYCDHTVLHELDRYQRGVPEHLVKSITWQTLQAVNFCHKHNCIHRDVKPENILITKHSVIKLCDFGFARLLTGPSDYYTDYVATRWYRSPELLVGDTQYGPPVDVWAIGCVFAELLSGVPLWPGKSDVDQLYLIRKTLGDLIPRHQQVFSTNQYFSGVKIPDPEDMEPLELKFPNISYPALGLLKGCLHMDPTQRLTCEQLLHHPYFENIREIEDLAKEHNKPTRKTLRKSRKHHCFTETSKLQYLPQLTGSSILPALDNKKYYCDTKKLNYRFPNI
T10 sequence (Q6PHR2 whole entry, the tested form may be a part): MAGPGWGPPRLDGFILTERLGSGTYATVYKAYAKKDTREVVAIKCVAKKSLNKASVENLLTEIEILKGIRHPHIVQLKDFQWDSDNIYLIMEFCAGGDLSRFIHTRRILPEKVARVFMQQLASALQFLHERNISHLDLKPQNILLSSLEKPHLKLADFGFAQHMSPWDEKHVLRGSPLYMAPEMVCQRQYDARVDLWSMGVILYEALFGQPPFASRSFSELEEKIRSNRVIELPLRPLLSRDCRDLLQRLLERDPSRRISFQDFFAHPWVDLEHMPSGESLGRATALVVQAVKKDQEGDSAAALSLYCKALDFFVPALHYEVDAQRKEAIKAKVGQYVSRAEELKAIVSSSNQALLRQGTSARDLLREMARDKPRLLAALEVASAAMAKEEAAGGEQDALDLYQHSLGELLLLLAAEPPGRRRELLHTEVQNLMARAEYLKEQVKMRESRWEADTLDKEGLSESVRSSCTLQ
T22 sequence (P42338 whole entry): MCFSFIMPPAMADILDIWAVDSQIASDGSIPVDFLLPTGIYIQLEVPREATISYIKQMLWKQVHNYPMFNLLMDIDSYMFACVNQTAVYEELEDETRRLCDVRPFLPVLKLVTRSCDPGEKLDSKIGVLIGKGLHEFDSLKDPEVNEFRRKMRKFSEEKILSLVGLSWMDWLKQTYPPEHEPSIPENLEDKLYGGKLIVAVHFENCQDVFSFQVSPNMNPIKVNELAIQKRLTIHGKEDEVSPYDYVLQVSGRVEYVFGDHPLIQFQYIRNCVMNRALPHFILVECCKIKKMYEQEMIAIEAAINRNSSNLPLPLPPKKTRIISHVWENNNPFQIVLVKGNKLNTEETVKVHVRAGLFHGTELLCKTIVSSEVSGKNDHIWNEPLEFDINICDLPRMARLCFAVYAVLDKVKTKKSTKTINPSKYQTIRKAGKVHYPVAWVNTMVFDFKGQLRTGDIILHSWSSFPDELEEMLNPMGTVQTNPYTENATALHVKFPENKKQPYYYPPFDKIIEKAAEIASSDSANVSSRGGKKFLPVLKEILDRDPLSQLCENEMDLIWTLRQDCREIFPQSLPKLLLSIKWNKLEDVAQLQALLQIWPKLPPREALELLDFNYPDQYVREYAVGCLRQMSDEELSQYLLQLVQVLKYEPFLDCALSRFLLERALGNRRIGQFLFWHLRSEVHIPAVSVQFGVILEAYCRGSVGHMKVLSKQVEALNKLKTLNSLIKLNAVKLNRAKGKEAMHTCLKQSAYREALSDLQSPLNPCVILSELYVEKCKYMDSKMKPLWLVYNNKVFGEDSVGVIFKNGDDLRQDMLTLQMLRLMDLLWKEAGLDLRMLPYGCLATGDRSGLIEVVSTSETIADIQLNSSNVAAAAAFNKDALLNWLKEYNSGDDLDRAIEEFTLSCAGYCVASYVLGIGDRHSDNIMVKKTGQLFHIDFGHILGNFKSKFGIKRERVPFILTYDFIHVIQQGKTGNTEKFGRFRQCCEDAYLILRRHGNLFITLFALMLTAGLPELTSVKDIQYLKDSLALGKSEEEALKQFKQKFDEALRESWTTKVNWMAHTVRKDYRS
T15 sequence (P53779 whole entry): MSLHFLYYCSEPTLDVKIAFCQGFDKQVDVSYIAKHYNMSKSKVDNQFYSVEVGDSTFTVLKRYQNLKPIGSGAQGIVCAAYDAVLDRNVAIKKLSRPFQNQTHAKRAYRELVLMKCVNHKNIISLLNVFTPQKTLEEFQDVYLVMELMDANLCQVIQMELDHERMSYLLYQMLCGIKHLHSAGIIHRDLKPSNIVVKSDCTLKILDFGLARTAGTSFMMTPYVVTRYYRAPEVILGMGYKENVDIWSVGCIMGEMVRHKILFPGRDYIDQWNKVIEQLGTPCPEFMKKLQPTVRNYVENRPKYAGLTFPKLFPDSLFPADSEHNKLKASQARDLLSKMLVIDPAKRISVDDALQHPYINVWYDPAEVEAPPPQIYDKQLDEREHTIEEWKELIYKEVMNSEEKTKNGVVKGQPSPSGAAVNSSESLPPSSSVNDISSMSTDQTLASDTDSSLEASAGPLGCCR
T27 sequence (Q05397 whole entry): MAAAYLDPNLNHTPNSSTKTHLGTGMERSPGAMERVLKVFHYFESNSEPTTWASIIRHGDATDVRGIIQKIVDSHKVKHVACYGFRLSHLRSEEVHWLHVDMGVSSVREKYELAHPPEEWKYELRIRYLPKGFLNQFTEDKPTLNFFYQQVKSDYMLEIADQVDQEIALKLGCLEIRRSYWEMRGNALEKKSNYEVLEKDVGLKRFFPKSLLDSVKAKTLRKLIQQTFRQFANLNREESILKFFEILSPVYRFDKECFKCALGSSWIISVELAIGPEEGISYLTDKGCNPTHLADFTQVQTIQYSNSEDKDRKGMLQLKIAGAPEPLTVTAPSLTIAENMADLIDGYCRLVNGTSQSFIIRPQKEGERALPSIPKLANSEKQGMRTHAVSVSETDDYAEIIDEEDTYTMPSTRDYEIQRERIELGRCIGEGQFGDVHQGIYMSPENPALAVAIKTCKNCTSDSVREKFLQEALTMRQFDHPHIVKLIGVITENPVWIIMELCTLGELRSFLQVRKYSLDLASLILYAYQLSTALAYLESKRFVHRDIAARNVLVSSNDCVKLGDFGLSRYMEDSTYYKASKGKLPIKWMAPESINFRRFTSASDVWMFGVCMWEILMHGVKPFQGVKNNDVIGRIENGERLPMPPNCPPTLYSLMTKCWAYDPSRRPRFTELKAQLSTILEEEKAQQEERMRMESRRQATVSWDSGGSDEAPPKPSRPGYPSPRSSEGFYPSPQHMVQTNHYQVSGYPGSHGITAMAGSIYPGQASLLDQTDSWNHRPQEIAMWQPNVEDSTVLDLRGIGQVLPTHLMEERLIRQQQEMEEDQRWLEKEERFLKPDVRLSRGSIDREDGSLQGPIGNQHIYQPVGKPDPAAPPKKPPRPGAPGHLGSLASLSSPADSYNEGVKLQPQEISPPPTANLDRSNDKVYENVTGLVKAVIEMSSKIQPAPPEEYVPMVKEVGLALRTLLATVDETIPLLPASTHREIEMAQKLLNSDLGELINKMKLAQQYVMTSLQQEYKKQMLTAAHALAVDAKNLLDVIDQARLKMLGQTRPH
T38 sequence (O43318 whole entry): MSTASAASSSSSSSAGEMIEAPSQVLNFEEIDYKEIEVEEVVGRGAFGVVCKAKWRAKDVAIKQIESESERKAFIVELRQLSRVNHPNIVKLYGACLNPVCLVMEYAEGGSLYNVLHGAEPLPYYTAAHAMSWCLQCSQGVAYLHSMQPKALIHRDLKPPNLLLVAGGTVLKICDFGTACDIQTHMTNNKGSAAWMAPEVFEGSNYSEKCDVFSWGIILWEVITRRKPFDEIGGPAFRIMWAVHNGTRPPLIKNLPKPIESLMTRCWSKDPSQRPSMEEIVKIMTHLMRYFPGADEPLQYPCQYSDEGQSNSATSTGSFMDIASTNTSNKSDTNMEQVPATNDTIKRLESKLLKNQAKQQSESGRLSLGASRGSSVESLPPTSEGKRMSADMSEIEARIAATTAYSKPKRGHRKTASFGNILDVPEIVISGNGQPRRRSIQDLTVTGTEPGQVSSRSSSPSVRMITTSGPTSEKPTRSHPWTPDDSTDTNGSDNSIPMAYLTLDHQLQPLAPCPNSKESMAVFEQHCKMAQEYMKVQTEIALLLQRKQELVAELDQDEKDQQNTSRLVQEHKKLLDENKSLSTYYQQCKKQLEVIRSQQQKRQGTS

CC(C)c1ccc(CC(=O)N2CCN(c3ccc(C#N)nn3)CC2)cc1 [PZ-2891, 6-(4-(2-(4-isopropylphenyl)acetyl)piperazin-1-yl)pyridazine-3-carbonitrile]
remaining binding at 10 µM (CDKL1): 74%
remaining binding at 10 µM (AKT2): 85%
remaining binding at 10 µM (p38-gamma): 58%
remaining binding at 10 µM (AURKC): 94%
remaining binding at 10 µM (CAMK1D): 95%
remaining binding at 10 µM (ABL2): 96%
remaining binding at 10 µM (CAMKK2): 87%
remaining binding at 10 µM (STK33): 90%
remaining binding at 10 µM (MRCKA): 92%
remaining binding at 10 µM (ULK3): 89%
remaining binding at 10 µM (KIT-autoinhibited): 81%
remaining binding at 10 µM (FGFR1): 87%
remaining binding at 10 µM (ERK5): 93%
remaining binding at 10 µM (RIPK5): 77%
remaining binding at 10 µM (JNK3): 88%
remaining binding at 10 µM (PRKR): 100%
remaining binding at 10 µM (NEK2): 88%
remaining binding at 10 µM (CLK3): 93%
remaining binding at 10 µM (TESK1): 86%
remaining binding at 10 µM (SRPK3): 67%
remaining binding at 10 µM (TRKA): 100%
PAMPA; Avg Pe (PAMPA): 413 10-6 cm/s
remaining binding at 10 µM (PIK3CB): 65%
remaining binding at 10 µM [1]: 97%
remaining binding at 10 µM (ASK1): 74%
remaining binding at 10 µM (KIT(L576P)): 88%
remaining binding at 10 µM (GAK): 93%
remaining binding at 10 µM (FAK): 89%
remaining binding at 10 µM (DCAMKL2): 89%
remaining binding at 10 µM (PDPK1): 75%
remaining binding at 10 µM (FGFR2): 100%
remaining binding at 10 µM (PIK3CA(E545K)): 65%
remaining binding at 10 µM (PIK3CA(C420R)): 76%
remaining binding at 10 µM (ITK): 89%
remaining binding at 10 µM (NDR1): 75%
remaining binding at 10 µM (ICK): 81%
remaining binding at 10 µM (IRAK1): 91%
remaining binding at 10 µM [2]: 96%
remaining binding at 10 µM (TAK1): 67%
remaining binding at 10 µM (MELK): 75%
remaining binding at 10 µM (TEC): 79%
remaining binding at 10 µM (MLK2): 72%
